Source: ChEMBL document CHEMBL4507284, “Data for DCP probe BI-1230” (2021)

Tests used:
[1] = molecular target: Tyrosine-protein kinase Fyn (Homo sapiens) (UniProt P06241); conditions: Compound concentration 1000.0 nM
[2] = molecular target: Insulin receptor-related protein (Homo sapiens) (UniProt P14616); conditions: Compound concentration 1000.0 nM
[3] = molecular target: Cyclin-dependent kinase 4 (Homo sapiens) (UniProt P11802); conditions: Compound concentration 1000.0 nM
[4] = molecular target: SRSF protein kinase 3 (Homo sapiens) (UniProt Q9UPE1); conditions: Compound concentration 1000.0 nM
[5] = molecular target: Ephrin type-A receptor 4 (Homo sapiens) (UniProt P54764); conditions: Compound concentration 1000.0 nM
[6] = molecular target: Serine/threonine-protein kinase 3 (Homo sapiens) (UniProt Q13188); conditions: Compound concentration 1000.0 nM
[7] = system: Hepatocyte growth factor receptor (Homo sapiens), P08581 [M1250T]; conditions: Compound concentration 1000.0 nM
[8] = molecular target: SRSF protein kinase 1 (Homo sapiens) (UniProt Q96SB4); conditions: Compound concentration 1000.0 nM
[9] = system: Phosphatidylinositol 4,5-bisphosphate 3-kinase catalytic subunit alpha isoform (Homo sapiens), P42336 [Q546K]; conditions: Compound concentration 1000.0 nM
[10] = molecular target: Cyclin-dependent kinase 18 (Homo sapiens) (UniProt Q07002); conditions: Compound concentration 1000.0 nM
[11] = molecular target: Calcium/calmodulin-dependent protein kinase type II subunit alpha (Homo sapiens) (UniProt Q9UQM7); conditions: Compound concentration 1000.0 nM
[12] = molecular target: Membrane-associated tyrosine- and threonine-specific cdc2-inhibitory kinase (Homo sapiens) (UniProt Q99640); conditions: Compound concentration 1000.0 nM
[13] = molecular target: Calcium/calmodulin-dependent protein kinase type II subunit delta (Homo sapiens) (UniProt Q13557); conditions: Compound concentration 1000.0 nM
[14] = molecular target: Discoidin domain-containing receptor 2 (Homo sapiens) (UniProt Q16832); conditions: Compound concentration 1000.0 nM
[15] = molecular target: Fibroblast growth factor receptor 1 (Homo sapiens) (UniProt P11362); conditions: Compound concentration 1000.0 nM
[16] = molecular target: Serine/threonine-protein kinase TAO3 (Homo sapiens) (UniProt Q9H2K8); conditions: Compound concentration 1000.0 nM
[17] = system: Mast/stem cell growth factor receptor Kit (Homo sapiens), P10721 [A829P]; conditions: Compound concentration 1000.0 nM
[18] = system: Fibroblast growth factor receptor 3 (Homo sapiens), P22607 [G697C]; conditions: Compound concentration 1000.0 nM
[19] = molecular target: Serine/threonine-protein kinase PLK4 (Homo sapiens) (UniProt O00444); conditions: Compound concentration 1000.0 nM
[20] = molecular target: Ephrin type-B receptor 2 (Homo sapiens) (UniProt P29323); conditions: Compound concentration 1000.0 nM
[21] = molecular target: Aurora kinase C (Homo sapiens) (UniProt Q9UQB9); conditions: Compound concentration 1000.0 nM
[22] = molecular target: Ephrin type-A receptor 3 (Homo sapiens) (UniProt P29320); conditions: Compound concentration 1000.0 nM
[23] = system: Epidermal growth factor receptor (Homo sapiens), P00533 [L858R]; conditions: Compound concentration 1000.0 nM
[24] = molecular target: Tyrosine-protein kinase ZAP-70 (Homo sapiens) (UniProt P43403); conditions: Compound concentration 1000.0 nM
[25] = molecular target: Cyclin-dependent kinase 13 (Homo sapiens) (UniProt Q14004); conditions: Compound concentration 1000.0 nM
[26] = molecular target: Serine/threonine-protein kinase WNK1 (Homo sapiens) (UniProt Q9H4A3); conditions: Compound concentration 1000.0 nM
[27] = molecular target: Ankyrin repeat and protein kinase domain-containing protein 1 (Homo sapiens) (UniProt Q8NFD2); conditions: Compound concentration 1000.0 nM
[28] = molecular target: Alpha-1A adrenergic receptor (Homo sapiens) (UniProt P35348); conditions: Compound concentration 10.0 uM
[29] = molecular target: Tyrosine-protein kinase Mer (Homo sapiens) (UniProt Q12866); conditions: Compound concentration 1000.0 nM
[30] = molecular target: Dual specificity mitogen-activated protein kinase kinase 5 (Homo sapiens) (UniProt Q13163); conditions: Compound concentration 1000.0 nM
[31] = molecular target: Mitogen-activated protein kinase kinase kinase 3 (Homo sapiens) (UniProt Q99759); conditions: Compound concentration 1000.0 nM
[32] = system: Hepatocyte growth factor receptor (Homo sapiens), P08581 [Y1235D]; conditions: Compound concentration 1000.0 nM
[33] = molecular target: Dual specificity protein kinase CLK2 (Homo sapiens) (UniProt P49760); conditions: Compound concentration 1000.0 nM
[34] = molecular target: Cyclin-dependent kinase 9 (Homo sapiens) (UniProt P50750); conditions: Compound concentration 1000.0 nM
[35] = molecular target: Activin receptor type-2B (Homo sapiens) (UniProt Q13705); conditions: Compound concentration 1000.0 nM
[36] = molecular target: Phosphatidylinositol 5-phosphate 4-kinase type-2 gamma (Homo sapiens) (UniProt Q8TBX8); conditions: Compound concentration 1000.0 nM
[37] = molecular target: Ephrin type-B receptor 4 (Homo sapiens) (UniProt P54760); conditions: Compound concentration 1000.0 nM
[38] = system: Receptor-type tyrosine-protein kinase FLT3 (Homo sapiens), P36888 [D835H]; conditions: Compound concentration 1000.0 nM
[39] = molecular target: Serine/threonine-protein kinase D1 (Homo sapiens) (UniProt Q15139); conditions: Compound concentration 1000.0 nM
[40] = molecular target: cAMP-dependent protein kinase catalytic subunit PRKX (Homo sapiens) (UniProt P51817); conditions: Compound concentration 1000.0 nM
[41] = molecular target: Interleukin-1 receptor-associated kinase 1 (Homo sapiens) (UniProt P51617); conditions: Compound concentration 1000.0 nM
[42] = molecular target: Interleukin-1 receptor-associated kinase 3 (Homo sapiens) (UniProt Q9Y616); conditions: Compound concentration 1000.0 nM
[43] = molecular target: Phosphatidylinositol 4-phosphate 5-kinase type-1 gamma (Homo sapiens) (UniProt O60331); conditions: Compound concentration 1000.0 nM
[44] = molecular target: 3-phosphoinositide-dependent protein kinase 1 (Homo sapiens) (UniProt O15530); conditions: Compound concentration 1000.0 nM
[45] = molecular target: Ephrin type-A receptor 1 (Homo sapiens) (UniProt P21709); conditions: Compound concentration 1000.0 nM

Sequence of Alpha-1A adrenergic receptor (Homo sapiens) (P35348 whole entry): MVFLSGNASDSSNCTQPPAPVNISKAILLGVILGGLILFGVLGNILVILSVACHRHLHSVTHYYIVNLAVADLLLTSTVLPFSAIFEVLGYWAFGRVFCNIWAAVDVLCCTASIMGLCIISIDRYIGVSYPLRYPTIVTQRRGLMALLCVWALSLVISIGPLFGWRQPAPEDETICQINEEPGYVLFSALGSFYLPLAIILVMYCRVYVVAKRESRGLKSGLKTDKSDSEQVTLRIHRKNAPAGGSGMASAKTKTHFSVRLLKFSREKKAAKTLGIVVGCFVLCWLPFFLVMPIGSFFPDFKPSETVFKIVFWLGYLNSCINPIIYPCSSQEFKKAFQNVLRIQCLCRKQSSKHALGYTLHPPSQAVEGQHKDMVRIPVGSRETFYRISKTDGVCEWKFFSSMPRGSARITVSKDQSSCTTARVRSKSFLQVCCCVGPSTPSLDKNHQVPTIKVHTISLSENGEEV
Sequence of Interleukin-1 receptor-associated kinase 3 (Homo sapiens) (Q9Y616 whole entry): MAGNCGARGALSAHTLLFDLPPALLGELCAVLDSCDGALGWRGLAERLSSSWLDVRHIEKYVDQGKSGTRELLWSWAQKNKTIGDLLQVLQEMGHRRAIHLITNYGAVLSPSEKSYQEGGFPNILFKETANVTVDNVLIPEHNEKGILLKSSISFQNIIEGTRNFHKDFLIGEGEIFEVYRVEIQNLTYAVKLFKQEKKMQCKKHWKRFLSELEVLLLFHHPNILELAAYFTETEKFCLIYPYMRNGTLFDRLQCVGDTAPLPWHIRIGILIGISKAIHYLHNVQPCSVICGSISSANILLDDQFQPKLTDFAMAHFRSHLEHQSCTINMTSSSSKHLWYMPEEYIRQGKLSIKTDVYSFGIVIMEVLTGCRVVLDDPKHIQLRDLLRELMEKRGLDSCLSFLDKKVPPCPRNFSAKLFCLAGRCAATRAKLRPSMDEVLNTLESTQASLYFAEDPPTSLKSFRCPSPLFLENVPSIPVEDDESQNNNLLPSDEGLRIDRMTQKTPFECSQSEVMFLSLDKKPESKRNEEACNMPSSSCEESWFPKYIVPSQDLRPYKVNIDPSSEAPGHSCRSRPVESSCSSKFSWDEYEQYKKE
Sequence of Calcium/calmodulin-dependent protein kinase type II subunit delta (Homo sapiens) (Q13557 whole entry, the tested form may be a part): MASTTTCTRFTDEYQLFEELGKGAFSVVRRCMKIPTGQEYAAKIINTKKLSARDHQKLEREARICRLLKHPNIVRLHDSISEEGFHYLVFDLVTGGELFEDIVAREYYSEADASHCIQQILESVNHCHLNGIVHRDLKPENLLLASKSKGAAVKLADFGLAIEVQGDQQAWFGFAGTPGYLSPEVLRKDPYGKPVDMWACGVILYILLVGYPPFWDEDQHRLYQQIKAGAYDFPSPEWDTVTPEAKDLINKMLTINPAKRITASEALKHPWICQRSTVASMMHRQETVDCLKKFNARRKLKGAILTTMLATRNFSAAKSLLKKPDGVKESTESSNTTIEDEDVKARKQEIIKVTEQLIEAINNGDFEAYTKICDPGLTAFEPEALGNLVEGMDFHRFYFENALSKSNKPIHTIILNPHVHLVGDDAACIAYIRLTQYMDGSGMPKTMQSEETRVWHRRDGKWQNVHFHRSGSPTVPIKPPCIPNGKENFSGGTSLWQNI
Sequence of Discoidin domain-containing receptor 2 (Homo sapiens) (Q16832 whole entry, the tested form may be a part): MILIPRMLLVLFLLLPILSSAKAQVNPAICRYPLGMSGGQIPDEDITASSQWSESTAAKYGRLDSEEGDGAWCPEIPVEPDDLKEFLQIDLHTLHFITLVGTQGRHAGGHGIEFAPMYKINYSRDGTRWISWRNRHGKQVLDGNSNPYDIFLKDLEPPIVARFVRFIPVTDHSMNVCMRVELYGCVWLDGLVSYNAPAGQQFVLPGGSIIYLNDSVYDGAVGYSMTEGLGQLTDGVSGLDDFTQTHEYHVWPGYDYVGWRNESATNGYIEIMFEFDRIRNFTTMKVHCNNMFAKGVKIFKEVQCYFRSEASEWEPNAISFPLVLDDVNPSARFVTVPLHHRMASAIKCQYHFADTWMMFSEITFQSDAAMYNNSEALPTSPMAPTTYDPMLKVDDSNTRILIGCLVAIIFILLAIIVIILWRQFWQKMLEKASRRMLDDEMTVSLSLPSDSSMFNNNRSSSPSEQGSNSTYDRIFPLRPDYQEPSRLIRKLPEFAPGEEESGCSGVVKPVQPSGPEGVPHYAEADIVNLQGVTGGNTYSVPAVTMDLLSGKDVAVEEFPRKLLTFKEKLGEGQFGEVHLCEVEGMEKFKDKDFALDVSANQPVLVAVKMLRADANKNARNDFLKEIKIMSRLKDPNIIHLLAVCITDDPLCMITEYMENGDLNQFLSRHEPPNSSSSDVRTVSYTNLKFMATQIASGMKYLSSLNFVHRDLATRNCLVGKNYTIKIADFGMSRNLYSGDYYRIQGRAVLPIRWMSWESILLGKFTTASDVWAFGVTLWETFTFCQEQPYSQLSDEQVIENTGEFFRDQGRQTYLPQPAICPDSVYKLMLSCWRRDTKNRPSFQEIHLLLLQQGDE
Sequence of Tyrosine-protein kinase Mer (Homo sapiens) (Q12866 whole entry): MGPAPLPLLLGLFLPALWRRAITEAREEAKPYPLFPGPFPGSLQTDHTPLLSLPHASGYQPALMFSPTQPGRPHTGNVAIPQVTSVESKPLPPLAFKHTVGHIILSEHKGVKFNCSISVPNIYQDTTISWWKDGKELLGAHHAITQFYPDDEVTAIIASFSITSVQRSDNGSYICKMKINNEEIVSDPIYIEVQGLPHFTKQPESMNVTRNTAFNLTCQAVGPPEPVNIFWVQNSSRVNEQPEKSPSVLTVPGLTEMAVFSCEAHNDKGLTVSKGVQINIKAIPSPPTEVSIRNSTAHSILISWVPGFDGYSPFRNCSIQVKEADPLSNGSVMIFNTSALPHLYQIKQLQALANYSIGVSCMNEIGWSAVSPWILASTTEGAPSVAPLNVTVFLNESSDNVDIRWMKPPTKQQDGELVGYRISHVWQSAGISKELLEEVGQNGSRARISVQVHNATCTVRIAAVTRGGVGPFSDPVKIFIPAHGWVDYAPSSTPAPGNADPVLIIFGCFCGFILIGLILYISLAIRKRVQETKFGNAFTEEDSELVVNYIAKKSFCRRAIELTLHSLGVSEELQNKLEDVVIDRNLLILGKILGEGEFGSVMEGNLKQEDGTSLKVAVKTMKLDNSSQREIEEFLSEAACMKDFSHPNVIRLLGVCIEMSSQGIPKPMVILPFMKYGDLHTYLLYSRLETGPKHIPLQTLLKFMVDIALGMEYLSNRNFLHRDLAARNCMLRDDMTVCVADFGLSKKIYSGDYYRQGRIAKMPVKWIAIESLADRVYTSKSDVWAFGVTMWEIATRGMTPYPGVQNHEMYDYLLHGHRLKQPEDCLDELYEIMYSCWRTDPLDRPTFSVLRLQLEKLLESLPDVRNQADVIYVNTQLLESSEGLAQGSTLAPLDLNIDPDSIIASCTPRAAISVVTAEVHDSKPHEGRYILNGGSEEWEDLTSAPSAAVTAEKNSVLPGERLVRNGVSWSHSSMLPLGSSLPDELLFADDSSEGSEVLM
Sequence of Ephrin type-A receptor 3 (Homo sapiens) (P29320 whole entry): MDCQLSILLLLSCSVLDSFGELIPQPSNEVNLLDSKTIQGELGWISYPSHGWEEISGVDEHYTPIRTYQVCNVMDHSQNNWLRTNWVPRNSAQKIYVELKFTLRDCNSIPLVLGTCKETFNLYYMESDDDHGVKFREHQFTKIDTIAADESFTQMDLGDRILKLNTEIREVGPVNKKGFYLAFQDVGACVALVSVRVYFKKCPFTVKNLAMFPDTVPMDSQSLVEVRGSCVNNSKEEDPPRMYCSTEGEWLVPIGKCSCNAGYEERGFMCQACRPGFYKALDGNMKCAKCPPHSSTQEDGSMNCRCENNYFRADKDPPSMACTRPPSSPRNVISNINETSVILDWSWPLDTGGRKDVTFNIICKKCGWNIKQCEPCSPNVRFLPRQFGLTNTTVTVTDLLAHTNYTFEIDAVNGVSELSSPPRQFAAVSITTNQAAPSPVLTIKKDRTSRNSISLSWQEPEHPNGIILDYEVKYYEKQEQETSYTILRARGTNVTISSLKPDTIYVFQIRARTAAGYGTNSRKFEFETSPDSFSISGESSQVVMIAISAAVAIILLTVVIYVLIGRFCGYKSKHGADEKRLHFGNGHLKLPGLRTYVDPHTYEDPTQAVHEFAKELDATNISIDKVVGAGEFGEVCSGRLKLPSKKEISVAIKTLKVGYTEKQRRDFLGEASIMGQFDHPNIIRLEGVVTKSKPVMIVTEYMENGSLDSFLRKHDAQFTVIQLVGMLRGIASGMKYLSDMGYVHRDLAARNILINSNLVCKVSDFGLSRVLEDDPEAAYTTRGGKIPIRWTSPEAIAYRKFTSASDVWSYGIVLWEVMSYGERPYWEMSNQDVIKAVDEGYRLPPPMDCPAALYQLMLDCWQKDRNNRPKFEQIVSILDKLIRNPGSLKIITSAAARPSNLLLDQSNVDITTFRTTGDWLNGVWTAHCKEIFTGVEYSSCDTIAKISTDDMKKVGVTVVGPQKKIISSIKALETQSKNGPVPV
Sequence of Cyclin-dependent kinase 4 (Homo sapiens) (P11802 whole entry): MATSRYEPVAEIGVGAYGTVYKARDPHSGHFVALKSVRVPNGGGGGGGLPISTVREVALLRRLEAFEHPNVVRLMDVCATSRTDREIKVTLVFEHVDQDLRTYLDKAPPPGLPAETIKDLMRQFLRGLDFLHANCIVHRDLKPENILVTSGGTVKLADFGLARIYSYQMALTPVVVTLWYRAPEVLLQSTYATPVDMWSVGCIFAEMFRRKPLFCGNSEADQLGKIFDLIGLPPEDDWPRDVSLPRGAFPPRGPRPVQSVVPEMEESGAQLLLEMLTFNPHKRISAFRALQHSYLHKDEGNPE
Sequence of Aurora kinase C (Homo sapiens) (Q9UQB9 whole entry): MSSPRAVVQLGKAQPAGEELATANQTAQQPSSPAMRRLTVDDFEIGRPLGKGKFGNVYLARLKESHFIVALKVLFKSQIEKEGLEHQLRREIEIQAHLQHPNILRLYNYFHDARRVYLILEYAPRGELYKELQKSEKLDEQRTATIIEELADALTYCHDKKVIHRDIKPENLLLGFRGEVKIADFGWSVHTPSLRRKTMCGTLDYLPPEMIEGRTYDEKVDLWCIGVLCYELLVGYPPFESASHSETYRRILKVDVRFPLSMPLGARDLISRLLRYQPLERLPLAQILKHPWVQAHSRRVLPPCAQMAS

COc1ccc2c(O[C@@H]3C[C@H]4C(=O)N[C@]5(C(=O)O)CC5/C=C\CCCCC[C@H](NC(=O)OC5CCCC5)C(=O)N4C3)cc(-c3csc(NC(=O)C(C)C)n3)nc2c1C (stereo not given in full) [BI 1230]
inactive: residual activity [1] 100% | residual activity [2] 95% | residual activity [3] 74% | residual activity [4] 57% | residual activity [5] 100% | residual activity [6] 86% | residual activity [7] 100% | residual activity [8] 100% | residual activity [9] 70% | residual activity [10] 100% | residual activity [11] 100% | residual activity [12] 100% | residual activity [13] 100% | residual activity [14] 88% | residual activity [15] 98% | residual activity [16] 88% | residual activity [17] 100% | residual activity [18] 88% | residual activity [19] 77% | residual activity [20] 98% | residual activity [21] 96% | residual activity [22] 97% | residual activity [23] 100% | residual activity [24] 100% | residual activity [25] 77% | residual activity [26] 100% | residual activity [27] 79% | inhibition [28] 1.41% | residual activity [29] 70% | residual activity [30] 71% | residual activity [31] 79% | residual activity [32] 100% | residual activity [33] 100% | residual activity [34] 83% | residual activity [35] 100% | residual activity [36] 89% | residual activity [37] 100% | residual activity [38] 73% | residual activity [39] 89% | residual activity [40] 86% | residual activity [41] 69% | residual activity [42] 97% | residual activity [43] 100% | residual activity [44] 99% | residual activity [45] 88%

O=C(N[C@H]1CCCCC/C=C\C2C[C@@]2(C(=O)O)NC(=O)[C@@H]2C[C@@H](Oc3ccncc3)CN2C1=O)OC1CCCC1 (stereo not given in full) [BI 1675]
inactive: residual activity [1] 100% | residual activity [2] 100% | residual activity [3] 100% | residual activity [4] 89% | residual activity [5] 93% | residual activity [6] 76% | residual activity [7] 92% | residual activity [8] 91% | residual activity [9] 98% | residual activity [10] 92% | residual activity [11] 95% | residual activity [12] 97% | residual activity [13] 87% | residual activity [14] 100% | residual activity [15] 100% | residual activity [16] 100% | residual activity [17] 98% | residual activity [18] 100% | residual activity [19] 88% | residual activity [20] 91% | residual activity [21] 92% | residual activity [22] 86% | residual activity [23] 96% | residual activity [24] 96% | residual activity [25] 90% | residual activity [26] 90% | residual activity [27] 100% | inhibition [28] 25.7% | residual activity [29] 64% | residual activity [30] 89% | residual activity [31] 89% | residual activity [32] 81% | residual activity [33] 100% | residual activity [34] 91% | residual activity [35] 100% | residual activity [36] 100% | residual activity [37] 100% | residual activity [38] 56% | residual activity [39] 96% | residual activity [40] 80% | residual activity [41] 88% | residual activity [42] 72% | residual activity [43] 100% | residual activity [44] 92% | residual activity [45] 90%
